Consider 1 substance from patent publication US20120321609A1, “METHOD OF TREATING PSYCHOLOGICAL DISORDERS” (priority 2011, published 2012).

The target of one test is T1, 5-HT2CR (Homo sapiens, UniProt P28335).
T1 construct: expressed in transfected cells; host or cells: HEK 293
T1 sequence (P28335 33-458): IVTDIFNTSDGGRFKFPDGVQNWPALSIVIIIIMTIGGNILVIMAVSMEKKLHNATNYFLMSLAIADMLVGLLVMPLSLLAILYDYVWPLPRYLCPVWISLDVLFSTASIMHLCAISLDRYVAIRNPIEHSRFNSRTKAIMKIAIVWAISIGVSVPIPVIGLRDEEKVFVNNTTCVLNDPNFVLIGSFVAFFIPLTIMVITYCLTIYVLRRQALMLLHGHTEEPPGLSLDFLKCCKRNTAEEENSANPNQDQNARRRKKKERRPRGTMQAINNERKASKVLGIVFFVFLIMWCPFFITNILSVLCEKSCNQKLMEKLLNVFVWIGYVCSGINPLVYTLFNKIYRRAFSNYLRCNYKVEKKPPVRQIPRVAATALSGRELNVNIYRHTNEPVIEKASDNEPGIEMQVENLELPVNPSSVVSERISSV
Briefly: 5-HT-stimulated inositol phosphate formation in HEK 293 cells transfected with FLAG-5-HT2CR and HA-CRFR1. It counts as cell-based.

The subject of test [1] is mice. The test can be described thus: Open field test (anxiety-related behaviour). Format: in vivo, mouse. The following applies: 5 min test; CRF 1.5 μg into medial prefrontal cortex, DOI 0.15 mg/kg i.p.; vs vehicle-vehicle or single treatment. As to the method:
Male CD-1 mice were obtained from Charles River Canada (St. Constant, Quebec) at 50-60 days of age, and were acclimatized to the laboratory for approximately 30 days before serving as experimental subjects. Mice were housed four per cage, until the time of surgery, after which they were housed individually. The vivarium was maintained on a 12-h light/dark cycle in a temperature (21° C.) controlled room with food and water freely available. Mice were anesthetized using isoflurane and stereotaxic surgery (David Kopf Instruments Model 940) was performed to install a cannulae into the medial prefrontal cortex. A Guide cannulae (Plastics One In), situated according to the mouse atlas of Franklin and Paxinos at Lateral=0.32 mm, D/V=2.25 mm, A/P=+2.68 mm. A dummy cannula, was inserted flush with guide. Approximately 1 week after behavioral testing mice were perfused with 4% paraformaldehyde. […]
In an initial test, mice were placed in a 45×45 cm open field, with an inner square of 21×24×24 cm., for a 5 min period, during which the time to enter the center area, and the total time spent in the center portion of the arena was recorded. […] Mice were individually placed in one of the enclosed arms of a plus-maze and the behavior of the animals was recorded over a 5 min period by a ceiling-mounted video camera. […]

Another test concerns mouse neuronal cultures. The test can be described thus: Inositol phosphate formation in mouse cortical neuronal cultures. Format: cell-based. The following applies: CRF 500 nM pretreatment 30 min; 5-HT 50 μM.
Test [2] deals with mice. The test can be described thus: Elevated plus maze test (anxiety-related behaviour). Format: in vivo, mouse. The following applies: DOI 0.15 mg/kg i.p. As to the method: Male CD-1 mice were obtained from Charles River Canada (St. Constant, Quebec) at 50-60 days of age, and were acclimatized to the laboratory for approximately 30 days before serving as experimental subjects. Mice were housed four per cage, until the time of surgery, after which they were housed individually. The vivarium was maintained on a 12-h light/dark cycle in a temperature (21° C.) controlled room with food and water freely available. Mice were anesthetized using isoflurane and stereotaxic surgery (David Kopf Instruments Model 940) was performed to install a cannulae into the medial prefrontal cortex. A Guide cannulae (Plastics One In), situated according to the mouse atlas of Franklin and Paxinos at Lateral=0.32 mm, D/V=2.25 mm, A/P=+2.68 mm. A dummy cannula, was inserted flush with guide. Approximately 1 week after behavioral testing mice were perfused with 4% paraformaldehyde. Brains were subsequently sectioned at 14 microns and stained with Cresyl violet for probe placement verification. Only the data from mice with correct probe placements were used in the analysis of the behavioral tests.
Drug diffusion was permitted for 5 min, and then after a further 5 min period mice were injected intraperotineally with DOI (Sigma) at a dose of 0.15 mg/kg or saline. Behavioral testing was conducted 15 min after the DOI treatment. In a second experiment the procedure was identical to that of the preceding study, except that mice were pretreated i.p. with either vehicle or 0.25 mg/kg of M100907 in a volume of 0.3 ml immediately prior to the DOI treatment. As in the preceding study mice were then tested in the elevated plus maze test (n=6-8)/group. Once again, data were obtained from videotapes and the researcher was blind as to the treatments mice had received.
In an initial test, mice were placed in a 45×45 cm open field, with an inner square of 21×24×24 cm., for a 5 min period, during which the time to enter the center area, and the total time spent in the center portion of the arena was recorded. The plus maze test was then conducted 1 min after the open field assessment. Mice were individually placed in one of the enclosed arms of a plus-maze and the behavior of the animals was recorded over a 5 min period by a ceiling-mounted video camera. The amount of time spent in each of the arms, the number of arm entries (an arm entry was defined as all four of the paws being placed in an arm of the plus-maze). The elevated plus-maze had two arms enclosed by 21 cm high walls; whereas the remaining two arms were open (arms were 24.8 cm long×7.7 cm wide). The maze was situated in a dimly lit room, such that the closed arms were darkened, whereas open arms were somewhat illuminated. All behavioural experiments were blinded. All experiments complied with the guidelines set by the Canadian Council on Animal Care and were approved by the Carleton University Animal Care Committee.

Test [3] has as its target T2, 5-HT2AR (Homo sapiens, UniProt P28223).
T2 construct: expressed in transfected cells; host or cells: HEK 293
The test can be described thus: 5-HT-stimulated inositol phosphate formation in HEK 293 cells co-expressing CRFR2 and 5-HT2AR. It counts as cell-based. The note with it: CRF 500 nM pretreatment 30 min.

The subject of test [4] is 5-HT2AR. The test can be described thus: Biotinylation of cell surface FLAG-5-HT2AR in HEK 293 cells. The note with it: CRF 500 nM pretreatment 30 min. It counts as cell-based, human. As to the method:
HEK 293 cells transiently expressing wild-type and truncated FLAG-5-HT2AR and HA-CRFR1 were seeded into 100 mm dishes and pre-incubated for 30 minutes in HBSS. […] Cell surface receptors were labeled on ice with biotin (1 mg/ml) for 1 hour. Following labeling, cells were washed 3 times with 10 mM glycine and then 2 times with HBSS, lysed and equal amounts of total protein were incubated with neutravidin beads for 2 hours with rotation at 4° C. Beads were then washed 3 times with lysis buffer and one time with PBS. Proteins were eluted from beads by addition of 50 ul of SDS loading buffer. Samples were resolved by SDS-PAGE, transferred to nitrocellulose membrane and subsequently immunoblotted as described above with rabbit polyclonal FLAG antibody.

The mark [5] stands for this setting: first experiment, CRF 1.5 μg into medial prefrontal cortex.
Setting [6] is: second experiment (M100907 study), CRF 1.5 μg mPFC, M100907 0.25 mg/kg i.p.

Sequence of 5-HT2AR (P28223 whole entry, the tested form may be a part): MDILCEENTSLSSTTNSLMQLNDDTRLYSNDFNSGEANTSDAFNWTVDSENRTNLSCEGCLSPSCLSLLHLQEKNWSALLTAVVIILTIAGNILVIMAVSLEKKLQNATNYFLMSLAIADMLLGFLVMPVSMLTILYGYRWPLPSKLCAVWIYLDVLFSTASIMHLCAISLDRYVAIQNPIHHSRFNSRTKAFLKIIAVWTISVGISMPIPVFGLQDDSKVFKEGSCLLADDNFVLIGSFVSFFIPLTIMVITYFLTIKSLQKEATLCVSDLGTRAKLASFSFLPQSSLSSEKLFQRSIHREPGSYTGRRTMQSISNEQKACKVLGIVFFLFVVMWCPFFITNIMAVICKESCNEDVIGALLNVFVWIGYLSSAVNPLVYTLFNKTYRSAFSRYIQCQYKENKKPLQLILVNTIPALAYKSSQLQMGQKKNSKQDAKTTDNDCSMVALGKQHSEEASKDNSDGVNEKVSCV
T2 sequence (P28223 whole entry): as the sequence (P28223 whole entry, the tested form may be a part) above

“CRF: 41 amino acid peptide that activates the HPA axis; agonist of CRF receptors”: the “inositol phosphate formation by CRF treatment itself” value in the test with 5-HT2CR (CRF 500 nM 30 min, cells expressing 5-HT2CR alone, CRFR1 alone or both receptors) is “did not result in inositol phosphate formation”. Besides, the “increase in maximum efficacy (EMAX) for 5-HT2CR-stimulated inositol phosphate formation” value in the test with 5-HT2CR (CRF pretreatment 500 nM for 30 min, cells expressing 5-HT2CR along with CRFR1) is 47±5.5%. The “effect of pretreatment on 5-HT dose-response curve for inositol phosphate formation, 5-HT2CR” value in the test with 5-HT2CR (HEK 293 cells expressing 5-HT2CR in the absence of CRFR1, CRF 500 nM 30 min) is listed as “had no effect”. Moreover, the “latency to enter the center square of open field” value with mice [1] is given as “neither the CRF nor the DOI treatments alone influenced performance”. Moreover, the “effect of pretreatment on 5-HT-stimulated [3H]-myo-inositol conversion to inositol phosphate” value in the test with mouse neuronal cultures was “significantly increase”. Also, in the test on mice [2] (setting [5]), the “latency to enter an open arm of the plus maze” value is recorded as “had no effect”, the “number of entries into the closed arms of the plus maze” value was “did not vary” and the “number of entries onto the open arms of the plus maze” value is given as “had no effect”. Further, in the test on mice [2] (setting [6]), the “frequency of open arm entries in the plus maze” value is reported as “neither CRF nor DOI alone affected the frequency of open arm entries”; the “latency to enter the open arms of the plus maze” value is reported as “moderate, but statistically significant increase”; the “time spent in the closed arms of the plus maze” value is reported as “unaffected”. Moreover, in the test on mice [2] (second experiment (M100907 study), CRF 1.5 μg mPFC, M100907 0.25 mg/kg i.p., relative to vehicle), the “entries to the closed arms of the plus maze” value is given as “increased closed arm entries”. Besides, the “effect of pretreatment on 5-HT2AR-stimulated inositol phosphate responses” value with 5-HT2AR [3] is “did not increase”. Moreover, the “increase in cell surface expression of the 5-HT2AR” value with 5-HT2AR [4] stood at 3.7±1.8 fold.
